From US20130323753A1, “METHODS AND KITS FOR IDENTIFICATION OF ANTI-EXCITOTOXIC COMPOUNDS” (RUTGERS, THE STATE UNIVERSITY OF NEW JERSEY, priority 2007, published 2013)
“Also recorded” adds a separate entry of the source.

Columns and labels:
[1] = system: pure spinal cord neuron cultures; test: Neuron survival (MAP-2+ count) in pure spinal cord neuron cultures, glutamate toxicity; assay type: cell-based, rat; conditions: for neuron loss: 1 hour
Experimental: (§1) To grow pure spinal neuron cultures, SCM was changed to Neurobasal medium (NB; Neurobasal medium (Gibco) supplemented with B-27, penicillin, and streptomycin) at 24 hours after plating. After an additional 24 hours, cytosine arabinoside (Ara-C, 5 μM) was added to these cultures for 3 days after which the Ara-C containing media was changed to fresh NB media. Cells were treated 24 hours later.
(§2) When cells were treated with glutamate, the medium was replaced with solutions of glutamate in Locke's buffer, with or without UA, for 1 hour at 37° C. In control cultures, the medium was replaced with Locke's buffer. After 1 hour, glutamate solutions were changed to SCM or NB and UA was added at the same concentration. In all cases, same amount of Locke's buffer was added to control as vehicle. When the cultures were treated with Sin-1, the drug was added directly to the medium with or without UA, and the same amount of PBS and Locke's buffer were added to control as vehicle. In all cases, cells were incubated for another 24 hours at 37° C. before being fixed or harvested.
(§3) Cells were fixed with 4% paraformaldehyde for 30 minutes at room temperature. After washing with PBS, the cultures were incubated with anti-MAP-2 (1:500), anti-GFAP (1:1000), anti-CNPase (1:500), anti-vimentin (1:1000) or anti-CD11 (1:500) for 2 hours at room temperature. Positive cells were then visualized with Cy2 anti-mouse secondary antibodies.
(§4) For each well, pictures were taken for 10 random fields at a magnification of 100×. Cell number (as indicated by the appropriate immunostain) in each of the 10 pictures was counted by an experimenter blind to the condition. Cell numbers in control and treated groups were compared with one-way analysis of variance (ANOVA) using the Instat software program (Graph Pad).
To address this question, pure spinal cord neuron cultures were established. Twenty four hours after plating in SCM, SCM was changed to NB medium, which optimizes neuronal growth. Ara-C (5 μM) was added to the cultures after another 24 hours to eliminate the glial populations. The medium was changed after 3 days, and cells were treated 24 hours later. This procedure eliminated non-neuronal cell types in the cultures with only neurons surviving.
To determine the sensitivity of pure neuronal and mixed cultures to glutamate, pure spinal cord neuron cultures were established, and after 6 days, these cells were treated with glutamate for 1 hour. Cells were fixed after 24 hours and stained with anti-MAP-2 antibody. (A) Control cultures and cells treated with 2, 10, and 500 μM glutamate are illustrated. […] Results were derived from 3 independent experiments (n=7). ***p<0.001 by nonparametric ANOVA followed by Dunn's analysis comparing glutamate treated groups with control. Scale bar, 50 μm.
To examine whether UA can directly reduce glutamate toxicity in pure neuronal cultures, cells were treated with or without various concentrations of UA either concurrent with or at the termination of exposure to 10 μM glutamate. More specifically, six days after plating, pure spinal cord neuron cultures were treated with glutamate (10 or 500 μM) for 1 hour. UA (100 or 200 μM) was added with and after glutamate treatments. Cells were fixed after 24 hours and numbers of neurons that survived (MAP-2+) were counted. Results shown in FIG. 6 were derived from 2 independent experiments (n=6). ***p<0.001 by nonparametric ANOVA followed by Dunn's analysis for multiple comparisons comparing treated groups with control.

[2] = system: pure spinal cord neuron cultures; test: Sin-1 (peroxynitrite donor) toxicity in pure spinal cord neuron cultures; assay type: cell-based, rat; conditions: Sin-1 250 μM 1-hr
Experimental: as §1
THA was dissolved in PBS.
as §2
Results were derived from 2 independent experiments (n=6). ***p<0.001 by parametric ANOVA followed by Bonferroni Multiple Comparisons Test.

[3] = system: mouse spinal cord neuron cultures; conditions: mouse spinal cord neuron cultures treated with UA; cited from earlier work
EAAT-2 = test: Western blot of EAAT-2 protein in mixed spinal cord cultures; assay type: cell-based, rat; conditions: UA 100 μM 24 hours, glutamate, or glutamate and UA
Experimental: (§5) At DIV 7, control and treated mixed spinal cord cultures grown on 35 mm dishes were scraped and protein was harvested in TEEN (25 mM Tris-HCl, pH 7.4, 1 mM EDTA, 1 mM EGTA, 100 mM NaCl) supplemented with 1 mM phenylmethylsulfonyl fluoride (PMSF). Proteins were resolved on 10% SDS-polyacrylamide gels and transferred to PVDF membranes.
(§6) After blocking with 3% bovine serum albumin (BSA), the membrane was incubated with primary antibodies: anti-EAAT-1 (goat polyclonal antibody from Santa Cruz Inc., 1:500) overnight at 4° C.; anti-EAAT-2 (goat polyclonal antibody from Santa Cruz Inc., 1:500) overnight at 4° C.; or anti-actin (mouse monoclonal antibody from Sigma-Aldrich, 1:2000) for 1 hour at room temperature (RT). After washing, the secondary antibody, horseradish peroxidase linked IgG (anti-goat for EAAT-1 and EAAT-2, anti-mouse for actin), was applied at 1:2000 for one hour at RT. The bands were visualized using the enhanced chemiluminescence (ECL) system (Amersham Biosci.).
(§7) The results of the Western blot experiments were analyzed with Universal Hood Gel Documentation Systems and Quantity One V4.2.1 software (BIO-RAD).
(§8) Additional studies examined whether UA affects protein expression of EAAT-1 and EAAT-2. […]

spinal cord neurons = test: Neuron survival (MAP-2+ count) in mixed spinal cord cultures grown in SCM, glutamate toxicity; assay type: cell-based, rat; conditions: for glutamate-elicited neuronal cell death, dose dependence: various concentrations of glutamate
Experimental: Spinal cords were dissected from embryonic day 16 (E16) rat embryos. Meninges were removed, and the cords were dissociated with gentle trituration. Cells were plated at a density of 350 neurons/mm^2.
as §2, §3, §4
Glutamate is the major physiological agent that mediates cell death after spinal cord injury. To examine the survival of spinal cord neurons in an in vitro model of SCI, mixed cell cultures derived from embryonic 16 (E16) rat spinal cords were treated with a range of concentrations of glutamate. These cells were grown in serum-containing medium (SCM) for 6 days (DIV 6) before being treated with various concentrations of glutamate for 1 hour. The brief exposure to high levels of glutamate mimics its temporary up-regulation after SCI. After glutamate was removed, cells were kept in SCM for another 24 hours before the cultures were fixed and immunostained. The numbers of surviving neurons were monitored with immunohistochemical labeling of MAP-2, a marker for neurons.
To determine whether UA can be used to prevent glutamate toxicity, initial experiments monitored the effects of UA on spinal cord neuron survival during basal conditions. DIV 6 cultures were treated with different concentrations of UA for 24 hours before being fixed and immunostained, and the numbers of neurons were counted. […] The results were derived from 2 independent experiments (n=6).
Further experiments were designed to reveal if UA could reduce neuronal cell death after glutamate exposure. Cells were treated with 500 μM glutamate with or without various concentrations of UA. UA was applied with glutamate and the same concentration of UA was added after the removal of glutamate. […] With high concentrations of UA, glutamate-promoted neuronal cell death was abolished (FIG. 3B). The results were derived from 6 independent experiments (n=12).

EAAT-1 = test: Western blot of EAAT-1 protein in mixed spinal cord cultures; assay type: cell-based, rat
Experimental: as §5, §6, §7, §8

[4] = at normal human levels; cited from earlier work
[5] = system: spinal cord neurons co-cultured with astroglia; test: Astroglia re-plated onto pure spinal cord neuron cultures, glutamate toxicity; assay type: cell-based, rat; conditions: glutamate 50 μM 1 hour, then 100 μM UA
Experimental: Spinal cord astroglial cultures were derived from postnatal day 1 rats using a modified approach from MaCarthy and de Vellis (McCarthy and deVellis 1980). Spinal cords were dissected and dissociated with trituration. Cells were plated in tissue culture flasks at density of 1000 cells/mm^2. Cultures were grown in NM-15 medium (84.4% MEM, 15% Fetal Bovine Serum, 0.6% glucose, supplemented with penicillin and streptomycin) for 9 days. Medium was changed every 3 days. The flasks were then shaken at 400×rpm for 20 minutes before the medium was changed and the floating cells (mostly microglia) were washed away. The flasks were again shaken overnight at 250×rpm to remove attached oligodendrocytes and remaining microglia. Following shaking, floating cells were washed away and medium was changed. Ara-C was added to final concentration of 10 μM to reduce the number of undifferentiated cells. Cultures were grown for 3 additional days before being trypsinized and re-plated at a density of 500 cells/mm^2 in SCM. These cultures only contain GFAP+ and vimentin+ astroglia. Staining for MAP-2 and CNPase were negative.
To determine the contribution of direct astroglial cell presence to the neuroprotective effects of UA, astroglial cultures were grown for 5 days in SCM before the cells were trypsinized and plated onto pure spinal cord neuron cultures grown for 5 days in vitro (DIV 5). […]

spinal cord injury = conditions: pre-treatment and concurrent treatment with UA; cited from earlier work

Question: For `O=c1[nH]c(=O)c2[nH]c(=O)[nH]c2[nH]1` [UA, uric acid], which “effect of UA itself on neuron survival” value ([1]; UA 100 or 200 μM) is on record?
Answer: no effect on neuron survival

Question: What about the “protection against glutamate toxicity” value ([1]; UA 100 or 200 μM with and after glutamate (10 or 500 μM, 1 hour)) of the same molecule?
Answer: did not show any protection against glutamate toxicity; also recorded: did not alter the neuron loss; also recorded: did not protect spinal cord neurons against glutamate toxicity; also recorded: does not decrease glutamate toxicity

Question: What about the “toxicity elicited by Sin-1, UA added after Sin-1” value ([2]; UA 100 μM added after) of the same molecule?
Answer: did not elicit a reversal of toxicity

Question: What about the “toxicity elicited by Sin-1, UA concurrently present” value ([2]; UA 100 μM concurrent) of the same molecule?
Answer: significantly reversed; also recorded: reduces damages elicited by Sin-1 treatment

Question: What about the peroxynitrite toxicity [3] of the same molecule?
Answer: blocked peroxynitrite toxicity

Question: And the “EAAT-2 protein expression normalized to actin” value (EAAT-2)?
Answer: not altered

Question: What about the “cell loss elicited by glutamate at 100 μM UA” value (spinal cord neurons; 100 μM UA, cultures grown in SCM) of the same molecule?
Answer: reversed the cell loss

Question: And the “effect on glutamate toxicity, UA added with and after glutamate” value (spinal cord neurons; 500 μM glutamate 1 hour, various concentrations of UA, mixed cultures)?
Answer: blocked glutamate toxicity in a dose-dependent manner

Question: And the “glutamate-promoted neuronal cell death at high concentrations of UA” value (spinal cord neurons; 500 μM glutamate, high concentrations of UA added with and after glutamate, mixed cultures)?
Answer: abolished

Question: What about the “effect on survival of spinal cord neurons during basal conditions” value (spinal cord neurons; UA different concentrations, 24 hours, DIV 6 mixed cultures, no glutamate) of the same molecule?
Answer: no effect on the survival of spinal cord neurons; also recorded: does not affect survival of spinal cord neurons

Question: What about the “EAAT-1 protein expression normalized to actin” value (EAAT-1; UA 100 μM, 24 hours, mixed cultures DIV 6) of the same molecule?
Answer: upregulated

Question: What about the “EAAT-1 protein expression, glutamate prior to UA” value (EAAT-1; glutamate 500 μM 1 hour, then UA 100 μM) of the same molecule?
Answer: did not influence UA actions in increasing EAAT-1 protein expression

Question: And the “carbon dioxide binding with peroxynitrite, times faster than UA” value [4]?
Answer: 920 times

Question: What about the “toxic effects of glutamate in astroglia/neuron combined cultures” value [5] of the same molecule?
Answer: blocked the toxic effects of glutamate; also recorded: reinstates the effects of UA in reducing glutamate toxicity

Question: And the secondary damage (spinal cord injury)?
Answer: reduced secondary damage

Question: With `N[C@@H](CCC(=O)O)C(=O)O` [glutamate] as the molecule, how does the neuron loss ([1]; glutamate 10 μM) read?
Answer: more than 80%

Question: What about the neuron loss ([1]; glutamate 500 μM) of the same molecule?
Answer: essentially eliminated all neurons; also recorded: almost total neuron elimination

Question: And the “cell loss, dose dependence” value ([1]; glutamate 1 hour)?
Answer: dose-dependent cell loss

Question: What about the “neurons that did not survive” value (spinal cord neurons; glutamate 500 μM and 1 mM, 1 hour, mixed cultures, fixed 24 hours later) of the same molecule?
Answer: approximately 40%

Question: And the “glutamate-elicited neuronal cell death, dose dependence” value (spinal cord neurons; mixed cultures, 1 hour)?
Answer: increased in a dose-dependent manner

Question: What about the “glutamate-elicited neuronal cell death, dose dependence” value (spinal cord neurons; mixed cultures, 1 hour, listed as Glutamate) of the same molecule?
Answer: induces loss of spinal cord neurons in a dose-dependent manner
